Assays:
Test in all cases: relative viability (nuclei count vs DMSO), 5 days (fraction); higher = more cells survive
[1] = compound: CC1=CC=C(C=C1)C(=O)CN2C3=C(CCCC3)SC2=N [Pifithrin_alpha] + CC1(C)CCC(c2ccc(Cl)cc2)=C(CN2CCN(c3ccc(C(=O)NS(=O)(=O)c4ccc(N[C@H](CCN5CCOCC5)CSc5ccccc5)c(S(=O)(=O)C(F)(F)F)c4)cc3)CC2)C1 [Navitoclax] (partner 0.5 µM)
Outline: (§1)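 Lung cancer cell lines were seeded in 1536-well plates and dosed by pin tool the next day, with either a single drug or a fixed anchor-drug dose combined with five library-drug doses (not always all listed) spaced in √10 steps. Five days later, one step fixed the cells and stained their nuclei (final 0.05% Triton X-100, 1% formaldehyde, 1 ug/ml Hoechst), and nuclei were counted on 4× images. Relative viability is the nuclei count in treated wells divided by the count in vehicle wells, and each value is the median of duplicate plates.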

[2] = compound: CC1=CC=C(C=C1)C(=O)CN2C3=C(CCCC3)SC2=N [Pifithrin_alpha] + CS(=O)(=O)CCNCc1ccc(-c2ccc3ncnc(Nc4ccc(OCc5cccc(F)c5)c(Cl)c4)c3c2)o1 [Lapatinib] (partner 2 µM)
Outline: as §1

[3] = compound: CNC(=O)c1ccccc1Sc1ccc2c(/C=C/c3ccccn3)n[nH]c2c1 [Axitinib] + CC(C)C[C@H](NC(=O)[C@H](Cc1ccccc1)NC(=O)c1cnccn1)B(O)O [Bortezomib] (partner 0.002 µM)
Outline: as §1

[4] = compound: CNC(=O)c1ccccc1Sc1ccc2c(/C=C/c3ccccn3)n[nH]c2c1 [Axitinib] + C[C@]1(O)C[C@@H](c2nc(-c3ccc4ccc(-c5ccccc5)nc4c3)c3c(N)nccn32)C1 [Linsitinib] (partner 1 µM)
Outline: as §1

| Cell Line | relative viability ([1]; first compound 3.162 µM) | relative viability ([1]; first compound 10 µM) | relative viability ([1]; first compound 31.62 µM) | relative viability ([1]; first compound 100 µM) | relative viability ([2]; first compound 3.162 µM) | relative viability ([2]; first compound 10 µM) | relative viability ([2]; first compound 31.62 µM) | relative viability ([2]; first compound 100 µM) | relative viability ([3]; first compound 0.005 µM) | relative viability ([3]; first compound 0.01581 µM) | relative viability ([3]; first compound 0.05 µM) | relative viability ([3]; first compound 0.1581 µM) | relative viability ([3]; first compound 0.5 µM) | relative viability ([4]; first compound 0.005 µM) | relative viability ([4]; first compound 0.01581 µM) | relative viability ([4]; first compound 0.05 µM) | relative viability ([4]; first compound 0.1581 µM) | relative viability ([4]; first compound 0.5 µM) | relative viability ([1]; first compound 1 µM) | relative viability ([2]; first compound 1 µM) |
| --- | --- | --- | --- | --- | --- | --- | --- | --- | --- | --- | --- | --- | --- | --- | --- | --- | --- | --- | --- | --- |
| NCI-H2405 | 0.81 | 0.813 | 0.635 | 0.689 | 0.975 | 0.991 | 0.882 | 0.975 | 1.03 | 0.982 | 1.03 | 0.946 | 0.958 | 0.945 | 1 | 1.07 | 1 | 1.11 | – | – |
| UMC-11 | 0.312 | 0.312 | 0.337 | 0.331 | 1.06 | 0.933 | 0.764 | 1.06 | 0.977 | 0.722 | 0.65 | 0.637 | 0.589 | 1.08 | 0.982 | 1.02 | 1.04 | 1.1 | 0.288 | 1.03 |
| PC-14 | 0.988 | 0.988 | 0.881 | 0.847 | 0.32 | 0.265 | 0.271 | 0.15 | 1.04 | 0.894 | 0.81 | 0.826 | 1.08 | 1.07 | 0.895 | 1.03 | 0.945 | 0.944 | 1.01 | 0.337 |
| HCC-78 | 0.768 | 0.623 | – | 0.783 | 0.77 | 0.693 | – | 0.619 | 0.643 | 0.491 | 0.305 | 0.499 | 0.566 | 0.602 | 0.414 | 0.52 | 0.526 | 0.479 | 0.752 | 0.432 |
| A-427 | 0.843 | 0.79 | 0.773 | 0.933 | 0.877 | 0.99 | 0.845 | 1.18 | 1.07 | 1.04 | 0.988 | 1.06 | 1.13 | 1.14 | 1.02 | 1.11 | 1.16 | 1.17 | 0.803 | 0.981 |
| HCC-827 | 0.917 | 0.849 | 0.672 | 0.694 | 0.207 | 0.235 | 0.197 | 0.198 | 1.11 | 1.06 | 1.04 | 1.02 | 1.15 | 0.927 | 0.907 | 0.963 | 0.977 | 0.999 | 1.02 | 0.197 |
| EPLC-272H | 0.978 | 1.02 | 0.894 | 1.25 | 0.8 | 1.05 | 0.629 | 0.739 | 0.986 | 0.804 | 0.857 | 0.994 | 0.892 | 1.33 | 1.1 | 1.32 | 1.12 | 1.07 | – | – |
| NCI-H520 | 1.32 | 1.16 | 0.94 | 1.12 | 0.978 | 0.88 | 0.694 | 0.878 | 0.685 | 0.698 | 0.474 | 0.5 | 0.705 | 0.972 | 0.996 | 0.989 | 0.84 | 1.03 | 1.11 | 1.01 |
| BEN | 0.0641 | 0.0597 | 0.0612 | 0.0656 | 0.769 | 0.686 | 0.733 | 0.873 | 0.804 | 0.781 | 0.554 | 0.75 | 0.543 | 1.04 | 1.01 | 0.689 | 0.803 | 0.928 | 0.0519 | 0.522 |
| NCI-H2087 | 1.04 | 0.998 | 0.742 | 0.715 | 0.942 | 0.913 | 0.655 | 0.972 | 0.944 | 0.772 | 0.868 | 0.615 | 1.13 | 1.06 | 0.905 | 0.96 | 0.699 | 0.968 | 0.948 | 0.991 |
| LOU-NH91 | 0.576 | 0.643 | 0.409 | 0.517 | 0.604 | 0.633 | 0.492 | 0.493 | 0.517 | 0.537 | 0.43 | 0.475 | 0.57 | 1.08 | 0.595 | 0.997 | 0.948 | 0.961 | 0.502 | 0.576 |
| NCI-H647 | 1.07 | 0.86 | – | 1.03 | 0.997 | 0.975 | – | 0.966 | 1.04 | 1.1 | 0.94 | 1.01 | 1.08 | 1.23 | 1.27 | 1.19 | 1.25 | 1.44 | 0.814 | 0.978 |
| NCI-H1915 | 0.793 | 0.788 | – | 0.801 | 1.15 | 0.883 | – | 1.13 | 0.921 | 0.944 | 1.05 | 0.986 | 0.976 | 1.03 | 1.12 | 1.09 | 1.13 | 1.13 | 0.791 | 0.923 |
| NCI-H1792 | 0.753 | 0.339 | 0.325 | 0.529 | 1.24 | 0.83 | 0.508 | 0.878 | 1 | 0.982 | 0.952 | 0.953 | 0.894 | 0.575 | 0.629 | 0.527 | 0.557 | 0.504 | 0.438 | 0.68 |
| HARA | 1.22 | 1.17 | 0.767 | 0.945 | 0.625 | 0.759 | 0.589 | 0.478 | 1.09 | 1.07 | 1.1 | 1.13 | 1.14 | 1.06 | 0.972 | 1.09 | 0.914 | 1.05 | 1.17 | 0.675 |
| NCI-H2347 | 0.87 | 0.786 | 0.551 | 0.814 | 0.911 | 0.902 | 0.705 | 0.911 | 1.26 | 0.752 | 1.36 | 0.798 | 0.692 | 1.07 | 0.929 | 1.08 | 1.07 | 0.914 | 0.695 | 0.811 |

Reference: the supplement of paper PMC10307832
